For this data set, the system named is rhesus monkey PGP. Put plainly: Polarization of vinblastine transport in Transwells, rhesus monkey PGP transfected LLC-PK1 cell monolayers. Conditions: PGP transfected LLC-PK1 cells, compared with control cells; vinblastine 0.1 μM.

Description: Rhesus monkey PGP cDNA (SEQ ID NO:1) is introduced into a clonal population of LLC-PK1 cells in a vector that confers resistance to hygromycin B. LLC-PK1 cells are obtained from the American Type Culture Collections and are propagated in Medium 199 supplemented to 7% with fetal bovine serum. LLC-PK1 cells are recloned prior to transfection in order to assure homogeneity of the cell population. Briefly, rhesus monkey PGP cDNA is incorporated into the p222CMV vector. […] The PGP cDNA is under the control of the cytomegalovirus (CMV) immediate early promoter. The vector confers resistance to hygromycin B. Cells (in 0.4 mL) and DNA (10 to 20 μg) were transfected by electroporation using a BTX Electro cell manipulator model 600 using a 2 mm gap cell, 100V, 2500 μF capacitance and 72 ohm resistance. […] Expression of PGP is measured by the polarization of vinblastine (0.1 μM) transport in Transwells™.
LLC-PK1 cell based transport studies are conducted in 24 well Transwells™ (Corning Costar, Catalog number 3415). […] Transport is measured under sink conditions in both the apical to basolateral (A to B) and basolateral to apical (B to A) directions. […] Quantitation of the amount of compound transported is by liquid scintillation counting (vinblastine) or HPLC with UV or mass spectrometric detection.
Functional expression of rhesus monkey PGP is measured by the polarization of transport of vinblastine.

`CC[C@]1(O)C[C@@H]2CN(CCc3c([nH]c4ccccc34)[C@@](C(=O)OC)(c3cc4c(cc3OC)N(C)[C@H]3[C@@](O)(C(=O)OC)[C@H](OC(C)=O)[C@]5(CC)C=CCN6CC[C@]43[C@@H]65)C2)C1` [vinblastine]: the “B to A/A to B ratio (polarization of transport)” value was “much higher ratio”.

The values above are taken from patent publication US6855812B2, “P-glycoproteins and uses thereof” (Becton, Dickinson and Company, priority 2001, dated 2005).
